In patent US8394596B1 (priority 2012, dated 2013):
Where two headings read alike, the source gives them in different places.

Tests used:
Format in all cases: binding
[1] = system: rabbit anti-BMAA antibody
[2] = system: rabbit anti-BMAA antibody; test: Competitive ELISA for BMAA on anti-rabbit IgG coated plates, estimate of sensitivity (Example 6); details: antibody harvested after fourth booster
Procedure: Rabbits were immunized with 0.5-1.0 mg of immunizing conjugate per rabbit per injection. The immunizing conjugate was emulsified with Complete Freund's Adjuvant for primary injections and with Incomplete Freund's Adjuvant for booster injections. Three or four booster injections were performed at monthly intervals to raise the desired titers. The rabbits were bled on 12±3 days following each booster injection. Antisera were monitored for titer and analyte specificity by capturing the relevant antibodies on ELISA plates coated with anti-rabbit IgG. The captured antibodies were measured in a subsequent step by incubating the plates with a BMAA-horseradish peroxidase (BMAA-HRP).
Three rabbits were immunized with an immunogen in which EDC was used to link BMAA to BSA according to Example 1. Three rabbits were immunized with an immunogen in which DSS was used to link BMAA to BSA according to Example 2. The rabbit with the highest antibody titer when tested with sera collected 14 days after the fourth booster was a rabbit that had been immunized with an immunogen in which DSS was used to link BMAA to BSA according to Example 2. Antibodies from that rabbit, harvested 14 days after the fourth booster were used to generate the data obtained from Example 6 below. Antibodies from that rabbit, harvested 14 days after the fourth booster were used to generate the data obtained from Example 8 below.
(§1) The ELISA method: • 1. Add either 100 μL of either a BMAA solution (0, 10, 25, 50, 100, 250, 500, 1000 ng/mL of BMAA) as a calibrator/standard solutions or 100 μL of a test sample into the wells of the test strips (coated with anti-rabbit IgG). Analysis in duplicate or triplicate is recommended. • 2. Add 50 μL of enzyme conjugate solution (BMAA-HRP) to the individual wells successively using a multi-channel pipette or a stepping pipette. • 3. Add 50 μL of antibody solution (rabbit anti-BMAA; for example one made by diluting by a factor of 8000 antiserum from a rabbit immunized according to Example 3 using BMAA-BSA as the immunogen) to the individual wells successively using a multi-channel pipette or a stepping pipette. Cover the wells with parafilm or tape and mix the contents by moving the strip holder in a circular motion on the benchtop for 30 seconds. Be careful not to spill the contents. The foregoing creates a total assay volume of 200 μL. • 4. Incubate the strips for 90 minutes at room temperature. • 5. Remove the covering and decant the contents of the wells into a sink. Wash the strips four times using the diluted washing buffer solution (1×PBS with 0.1% Tween), using at least a volume of 250 μL of washing buffer for each well in each washing step. Remaining buffer in the wells should be removed by patting the inverted plate dry on a stack of paper towels. • 6. Add 150 μL of substrate (color) solution ((TMB), BioFX cat #TMBW-1000 from Surmodics), to the wells. Cover the wells with parafilm or tape and mix the contents by moving the strip holder in a circular motion on the benchtop for 30 seconds. Be careful not to spill the contents. Incubate the strips for 30 minutes at room temperature. Protect the strips from direct sunlight. • 7. Add 100 μL of stop solution (2N HCl) to the wells in the same sequence as for the substrate solution. • 8. Read the absorbance at 450 nm using a microplate ELISA photometer within 15 minutes after the addition of stopping solution using a computer interfaced ELISA reader (Molecular Devices, Sunnyvale, Calif.). BMAA concentration in the unknown samples was estimated by comparison with a concurrently-run standard curve.
The procedure of Example 5 was followed using known amounts of BMAA. (The antibody preparation was that specified in Example 3 as having been used for Example 6). “Concentration (ng/ml)” refers to the concentration of the BMAA in the 100 μL of calibrator/standard solution referred to in step (1) of Example 5. […]

[3] = system: rabbit anti-BMAA antibody; test: Competitive ELISA for BMAA, second estimate of sensitivity with later-harvested antibody (Example 8); details: antibody harvested after the 6th boost
Procedure: as §1
The procedure of Example 6 was followed except that (1) the BMAA concentrations tested were 5, 10, 25, 100, 250 and 500 ppb (corresponding to 5, 10, 25, 100, 250 and 500 ng/ml) and (2) an antibody preparation harvested later than that used for Example 6 was used. The antibodies harvested for this example were harvested after the 6th boost.
The sensitivity of the assay was estimated to be 2.5 ppb.

[4] = relative to BMAA 50% inhibition at 170 ng/ml, 0.2% compounds tested up to 500 ug/mL, 0.1% up to 1 mg/ml

Cl.NCCC(N)C(=O)O (racemic) [D,L-2,4-Diaminobutyric acid hydrochloride]
Cross-reactivity [1, 4]: 0.1%

CNC[C@H](N)C(=O)O [BMAA, β-N-methylamino-L-alanine]
B/Bo (%) ([2]; BMAA 10 ng/ml in 100 μL standard solution): 93%
B/Bo (%) ([2]; BMAA 25 ng/ml in 100 μL standard solution): 85%
B/Bo (%) ([2]; BMAA 50 ng/ml in 100 μL standard solution): 77%
B/Bo (%) ([2]; BMAA 100 ng/ml in 100 μL standard solution): 64%
B/Bo (%) ([2]; BMAA 250 ng/ml in 100 μL standard solution): 44%
B/Bo (%) ([2]; BMAA 500 ng/ml in 100 μL standard solution): 29%
B/Bo (%) ([2]; BMAA 1000 ng/ml in 100 μL standard solution): 18%
sensitivity of the assay: concentration of BMAA needed to reduce B/Bo by 5 percent ([2]; Example 6): 7.5 ppb
concentration of BMAA causing 50% inhibition in the assay ([1]; concentration in the 100 μL standard solution): 170 nanograms/ml
Cross-reactivity [1, 4]: 100%
B/Bo (%) ([3]; BMAA 5 ng/ml): 93%
B/Bo (%) ([3]; BMAA 10 ng/ml): 88%
B/Bo (%) ([3]; BMAA 25 ng/ml): 77%
B/Bo (%) ([3]; BMAA 100 ng/ml): 49%
B/Bo (%) ([3]; BMAA 250 ng/ml): 30%
B/Bo (%) ([3]; BMAA 500 ng/ml): 19%
sensitivity of the assay: concentration of BMAA needed to reduce B/Bo by 5 percent ([3]; Example 8): 2.5 ppb

N[C@@H](CC(=O)O)C(=O)O [L-Aspartic acid]
Cross-reactivity [1]: 0.2%

Cl.N[C@@H](CS)C(=O)O [L-Cysteine hydrochloride]
Cross-reactivity [1, 4]: 0.2%

N[C@@H](CCC(=O)O)C(=O)O [L-Glutamic acid]
Cross-reactivity [1, 4]: 0.2%

NCCCC(=O)O [γ-Aminobutyric acid]
Cross-reactivity [1, 4]: 0.2%
